Assay results reported in ChEMBL document CHEMBL6087448, “Eradication of Therapy-Resistant Cancer Stem Cells by Novel Telmisartan Derivatives” (J Med Chem, 2025).
Activity calls are given as the source filed them. The rule behind the calls is not given here.

Columns and labels:
K-562R [1] = experiment: Sensitization of imatinib-induced cytotoxicity against human K562-r cells assessed as reduction in metabolic activity at 10 uM measured after 72 hrs by MTT assay; type: functional, cell-based
COS-7 = experiment: Cytotoxicity against African green monkey COS-7 cells assessed as reduction in metabolic activity at 10 uM incubated for 72 hrs by MTT assay; type: toxicity, cell-based; conditions: chlorocebus aethiops, cos-7, 72 h
A2780/Taxol [2] = experiment: Inhibition of side population phenotype in human Paclitaxel-resistant A2780 cells expressing ABCB1 at 10 uM incubated for 90 mins by DCV staining based flow cytometric analysis; type: functional, cell-based
A2780/Taxol [3] = experiment: Sensitization of paclitaxel-induced cytotoxicity against human Paclitaxel-resistant A2780 cells assessed as reduction in metabolic activity at 10 uM measured after 72 hrs by MTT assay; type: functional, cell-based
[4] = system: Docetaxel-resistant DU145 cell; experiment: Enhancement of docetaxel-induced anti-metabolic activity against human Docetaxel-resistant DU145 cell assessed as reduction in metabolic activity at 10 uM measured after 72 hrs by MTT assay; type: functional, cell-based
K-562R [5] = experiment: Inhibition of side population phenotype in human K562-r cells at 10 uM incubated for 90 mins by DCV staining based flow cytometric analysis relative to control; type: functional
[6] = system: Paclitaxel-resistant IGROV-1 cell; experiment: Enhancement of paclitaxel-induced anti-metabolic activity in human Paclitaxel-resistant IGROV-1 cells assessed as reduction in metabolic activity upto 300 nM measured after 72 hrs by MTT assay; type: functional, cell-based
A549 [7] = experiment: Effect on STAT5 protein expression in human A549 cells at 10 uM incubated for 72 hrs by Western blotting based immunoassay; type: functional, cell-based
A2780/Taxol [8] = experiment: Effect on STAT5 protein expression in human Paclitaxel-resistant A2780 cells expressing ABCB1 at 10 uM incubated for 72 hrs by Western blotting based immunoassay; type: functional, cell-based
A549 [9] = experiment: Inhibition of side population phenotype in human A549 cells expressing ABCC1 at 10 uM incubated for 90 mins by DCV staining based flow cytometric analysis; type: functional, cell-based
[10] = system: Paclitaxel-resistant IGROV-1 cell; experiment: Inhibition of STAT5 phosphorylation in human Paclitaxel-resistant IGROV-1 cells expressing ABCB1 at 10 uM incubated for 72 hrs by Western blotting based immunoassay
[11] = system: Paclitaxel-resistant A2780; experiment: Inhibition of STAT5 phosphorylation in human Paclitaxel-resistant A2780 cells expressing ABCB1 at 10 uM incubated for 72 hrs by Western blotting based immunoassay; type: cell-based
K562-r [12] = experiment: Effect on STAT5 phosphorylation in human K562-r cells at 4 uM measured after 6 hrs by Western blotting based immunoassay; type: cell-based
MCF7 [13] = experiment: Inhibition of side population phenotype in human MCF7 cells expressing ABCG2 at 10 uM incubated for 90 mins by DCV staining based flow cytometric analysis; type: functional, cell-based
[14] = system: Docetaxel-resistant PC-3 cell; experiment: Enhancement of docetaxel-induced anti-metabolic activity against human Docetaxel-resistant PC-3 cell assessed as reduction in metabolic activity at 10 uM measured after 72 hrs by MTT assay; type: functional, cell-based
A549 [15] = experiment: Inhibition of STAT5 phosphorylation in human A549 cells at 10 uM incubated for 72 hrs by Western blotting based immunoassay; type: cell-based
MCF7 [16] = experiment: Effect on STAT5 protein expression in human MCF7 cells at 10 uM incubated for 72 hrs by Western blotting based immunoassay; type: functional, cell-based
[17] = system: Paclitaxel-resistant IGROV-1 cell; experiment: Inhibition of side population phenotype in human Paclitaxel-resistant IGROV-1 cells expressing ABCB1 at 10 uM incubated for 90 mins by DCV staining based flow cytometric analysis; type: functional
[18] = system: Docetaxel-resistant DU145 cell; experiment: Inhibition of side population phenotype in human Docetaxel-resistant DU145 cell expressing ABCB1 at 10 uM incubated for 90 mins by DCV staining based flow cytometric analysis; type: functional
K562-r [19] = experiment: Inhibition of STAT5 phosphorylation in human K562-r cells at 4 uM measured after 6 hrs in presence of imatinib by Western blotting based immunoassay; type: cell-based
[20] = system: Paclitaxel-resistant IGROV-1 cell; experiment: Downregulation of STAT5 protein expression in human Paclitaxel-resistant IGROV-1 cells expressing ABCB1 at 10 uM incubated for 72 hrs by Western blotting based immunoassay; type: functional
MCF7 [21] = experiment: Inhibition of STAT5 phosphorylation in human MCF7 cells at 10 uM incubated for 72 hrs by Western blotting based immunoassay; type: cell-based
[22] = system: Docetaxel-resistant PC-3 cell; experiment: Inhibition of side population phenotype in human Docetaxel-resistant PC-3 cell expressing ABCB1 at 10 uM incubated for 90 mins by DCV staining based flow cytometric analysis; type: functional
K562-r [23] = experiment: Inhibition of STAT5 phosphorylation in human K562-r cells at 4 uM measured after 72 hrs by Western blotting based immunoassay; type: cell-based
K-562R [24] = experiment: Effect on ABCB1 protein expression in human K562-r cells at 4 uM incubated for 72 hrs by Western blotting based immunoassay; type: functional, cell-based
K-562R [25] = experiment: Sensitization of imatinib-induced cytotoxicity against human K562-r cells assessed as metabolic activity at 8 uM measured after 72 hrs by MTT assay relative to control; type: functional
K-562R [26] = experiment: Sensitization of imatinib-induced cytotoxicity against human K562-r cells assessed as cell viability at 10 uM measured after 72 hrs by MTT assay relative to control; type: functional; conditions: read-out: Activity
K562 = experiment: Cytotoxicity against human K562 cells assessed as reduction in metabolic activity at 10 uM measured after 72 hrs by MTT assay; type: functional, cell-based
K-562R [27] = experiment: Inhibition of side population phenotype in human K562-r cells at 0.1 uM incubated for 90 mins by DCV staining based flow cytometric analysis; type: functional, cell-based
K-562R [28] = experiment: Sensitization of imatinib-induced cytotoxicity against human K562-r cells assessed as reduction in metabolic activity at 0.5 to 6 uM measured after 72 hrs by MTT assay; type: functional, cell-based; conditions: dose 0.5-6 µM
K562-r [29] = experiment: Effect on STAT5 phosphorylation in human K562-r cells at 4 uM measured after 72 hrs by Western blotting based immunoassay; type: cell-based
K-562R [30] = experiment: Cytotoxicity against human K562-r cells assessed as reduction in metabolic activity; type: functional, cell-based
K562-r [31] = experiment: Effect on STAT5 phosphorylation in human K562-r cells at 4 uM measured after 6 hrs in presence of imatinib by Western blotting based immunoassay; type: cell-based
K-562R [32] = experiment: Cytotoxicity against human K562-r cells assessed as cell viability at 10 uM incubated for 72 hrs by MTT assay relative to control; type: functional; conditions: read-out: Activity

## CCCc1nc2ccccc2n1Cc1ccc(C(=O)O)cc1
K-562R [1]
  Activity: inactive
COS-7
  Activity: Non-toxic

## CCCc1nc2ccccc2n1Cc1ccc(-c2cccc(C(N)=O)c2)cc1
A2780/Taxol [2]
  inhibition: Active
A2780/Taxol [3]
  Activity: Active
[4]
  Activity: Active
K-562R [5]
  inhibition: Active
[6]
  Activity: Active
A549 [7]
  Activity: inactive
A2780/Taxol [8]
  Activity: inactive
A549 [9]
  inhibition: inactive
[10]
  inhibition: Active
[11]
  inhibition: Active
K562-r [12]
  Activity: inactive
MCF7 [13]
  inhibition: inactive
[14]
  Activity: Active
A549 [15]
  inhibition: Active
MCF7 [16]
  Activity: inactive
[17]
  inhibition: Active
[18]
  inhibition: Active
K562-r [19]
  inhibition: Active
[20]
  Activity: Active
COS-7
  Activity: Non-toxic
MCF7 [21]
  inhibition: Active
[22]
  inhibition: Active
K562-r [23]
  inhibition: Active; Lesser Effect Observed
K-562R [24]
  Activity: inactive

## CCCc1nc2ccccc2n1Cc1cccc(C(N)=O)c1
K-562R [1]
  Activity: inactive
COS-7
  Activity: Non-toxic

## CCCc1nc2ccccc2n1Cc1cccc(C(=O)OC)c1
K-562R [5]
  inhibition: inactive
K-562R [25]
  Activity: 44%
COS-7
  Activity: Non-toxic
K-562R [26]
  viability at 10 µM: 34%

## CCCc1nc2ccccc2n1Cc1cccc(C(=O)O)c1
K-562R [1]
  Activity: inactive
COS-7
  Activity: Non-toxic

## COc1cc2c(cc1OC)CN(CCc1ccc(NC(=O)c3cccc4c(=O)c5cccc(OC)c5[nH]c34)cc1)CC2
K562
  Activity: inactive
K-562R [27]
  inhibition: Active
K-562R [28]
  Activity: Active
K562-r [12]
  Activity: inactive
K562-r [29]
  Activity: inactive
K-562R [30]
  Activity: inactive
K562-r [31]
  Activity: inactive

## C/C=C/C[C@@H](C)C(=O)[C@H]1C(=O)N[C@@H](C(C)C)C(=O)N(C)CC(=O)N(C)[C@@H](CC(C)C)C(=O)N[C@@H](C(C)C)C(=O)N(C)[C@@H](CC(C)C)C(=O)N[C@@H](C)C(=O)N[C@H](C)C(=O)N(C)[C@@H](CC(C)C)C(=O)N(C)[C@@H](CC(C)C)C(=O)N(C)[C@@H](C(C)C)C(=O)N1C
K562
  Activity: inactive
K-562R [28]
  Activity: Active
K-562R [30]
  Activity: inactive

## CCCc1nc2ccccc2n1Cc1ccc(-c2ccc(C(=O)OC)cc2)cc1
K-562R [5]
  inhibition: Active
K-562R [32]
  viability at 10 µM: ~75%
K562-r [12]
  Activity: inactive
K562-r [19]
  inhibition: Active
COS-7
  Activity: Non-toxic
K562-r [23]
  inhibition: Active
K-562R [24]
  Activity: inactive

## CCCc1nc2ccccc2n1Cc1ccccc1C(=O)O
K-562R [1]
  Activity: inactive
COS-7
  Activity: Non-toxic

## CCCc1nc2ccccc2n1Cc1ccc(-c2ccccc2C(=O)OC)cc1
K-562R [5]
  inhibition: Active
K562-r [12]
  Activity: inactive
COS-7
  Activity: Non-toxic
K562-r [31]
  Activity: inactive
K562-r [23]
  inhibition: Active; Lesser Effect Observed
K-562R [24]
  Activity: inactive

## CCCc1nc2ccccc2n1Cc1ccc(C(N)=O)cc1
K-562R [1]
  Activity: inactive
COS-7
  Activity: Non-toxic
